Measurements published in patent US20150299125A1, “PRODRUG BIPYRIDYLAMINOPYRIDINES AS SYK INHIBITORS” (MERCK SHARP & DOHME CORP., priority 2012, published 2015).
Values after ≈ are worked out from the molar mass of the structure shown. Where two headings read alike, the source gives them in different places.

Key:
[1] = Solubility in biorelevant fasted state simulated intestinal fluid (FaSSIF); type: physicochemical
Description: Solubility in Biorelevant Fasted State Simulated Intestinal Fluid (FaSSIF):
A 10 mM DMSO stock solution of compound to be tested is used. A 100 μM standard solution is generated by diluting 2.5 μL of the 10 mM stock solution with 247.5 μL of diluent (10% DMSO/10% MeCN/80% MeOH, v/v/v). A solubility solution is generated by diluting 5 μL of the 10 mM stock solution with 245 μL of FaSSIF (maximum solubility approximately 200 μM). […] The equilibrated solubility solution is filtered by centrifugation (3 minutes at 4000 rpm) using a 0.45 µm filter with a polypropylene membrane. The standard solution and the filtered equilibrated solubility solution are analyzed by HPLC/DAD. The solubility value is calculated by the following equation:
Solubility=(Peak area of sample/Peak area of standard)(Standard concentration)

[2] = biological target: T1, recombinant human GST-Syk (Homo sapiens, UniProt P43405); assay: Homogeneous Time-Resolved Fluorescence (HTRF) assay for the recombinant human Syk enzyme; type: biochemical; conditions: recombinant human GST-Syk 5 pM, ATP 25 μM, read-out: IC50
T1 construct: purchased Carna Biosciences 08-176
Method in brief: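 Recombinant GST-hSyk phosphorylates a biotinylated peptide for 45 min at room temperature. Quenched with EDTA buffer containing 2 nM Eu-anti-phosphotyrosine antibody and 70 nM SA-APC; HTRF read after 30 min.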

[3] = 25 °C, fassif, kinetic from dmso stock, Solubility

solubility [1, 3] [µM]	IC50 [2] [nM]	solubility ([1]; read-out: Solubility) [µM]	Compound	solubility ([1]; kinetic from dmso stock, FaSSIF, equilibrated overnight at 25° C., maximum solubility approximately 200 μM, read-out: Solubility) [µM]
97	0.8		Cc1cc(Nc2cc(C(F)F)ccn2)nc(-c2ccc([C@](C)(O)[C@H]3CC[C@H](C(=O)OC[N+](C)(C)C(C)C)CC3)nc2)c1 [Example 5-2, N-{[({trans-4-[(1R)-1-(6-{[4-(difluoromethyl)pyridin-2-yl]amino}-4-methyl-2,3′-bipyridin-6′-yl)-1-hydroxyethyl]cyclohexyl}carbonyl)oxy]methyl}-N,N-dimethylpropan-2-aminium]	
53	1.3		Cc1cc(Nc2cc(C(F)F)ccn2)nc(-c2ccc([C@](C)(O)[C@H]3CC[C@H](C(=O)OC[N+](C)(C)CCN(C)C)CC3)nc2)c1 [Example 5-5, N-{[({trans-4-[(1R)-1-(6-{[4-(difluoromethyl)pyridin-2-yl]amino}-4-methyl-2,3′-bipyridin-6′-yl)-1-hydroxyethyl]cyclohexyl}carbonyl)oxy]methyl}-2-(dimethylamino)-N,N-dimethylethanaminium]	
68	2		Cc1cc(Nc2cc(C(F)F)ccn2)nc(-c2ccc([C@](C)(O)[C@H]3CC[C@H](C(=O)OC[N+]4(C)CCN(C)CC4)CC3)nc2)c1 [Example 5-26, 1-{[({trans-4-[(1R)-1-(6-{[4-(difluoromethyl)pyridin-2-yl]amino}-4-methyl-2,3′-bipyridin-6′-yl)-1-hydroxyethyl]cyclohexyl}carbonyl)oxy]methyl}-1,4-dimethylpiperazin-1-ium]	
86	0.8		Cc1cc(Nc2cc(C(F)F)ccn2)nc(-c2ccc([C@](C)(O)[C@H]3CC[C@H](C(=O)OC[N+](C)(C)Cc4ccccc4)CC3)nc2)c1 [Example 5-20, N-benzyl[({trans-4-[(1R)-1-(6-{[4-(difluoromethyl)pyridin-2-yl]amino}-4-methyl-2,3′-bipyridin-6′-yl)-1-hydroxyethyl]cyclohexyl}carbonyl)oxy]-N,N-dimethylmethanaminium]	
89 (≈ 60.2 µg/mL)	4.1		Cc1cc(Nc2cc(C(F)F)ccn2)nc(-c2ccc([C@](C)(O)[C@H]3CC[C@H](C(=O)OCOC(=O)[C@@H](O)Cc4ccc(O)cc4)CC3)nc2)c1 [Example 3-6, {[(2S)-2-hydroxy-3-(4-hydroxyphenyl)propanoyl]oxy}methyl trans-4-[(1R)-1-(6-{[4-(difluoromethyl)pyridin-2-yl]amino}-4-methyl-2,3′-bipyridin-6′-yl)-1-hydroxyethyl]cyclohexane carboxylate]	
165 (≈ 91.8 µg/mL)	2.3		Cc1cc(Nc2cc(C(F)F)ccn2)nc(-c2ccc([C@](C)(O)[C@H]3CC[C@H](C(=O)OC[C@H](O)CO)CC3)nc2)c1 [Example 1-16, (2R)-2,3-dihydroxypropyl trans-4-[(1R)-1-(6-{[4-(difluoromethyl)pyridin-2-yl]amino}-4-methyl-2,3′-bipyridin-6′-yl)-1-hydroxyethyl] cyclohexanecarboxylate]	
155	0.7		Cc1cc(Nc2cc(C(F)F)ccn2)nc(-c2ccc([C@](C)(O)[C@H]3CC[C@H](C(=O)OC[N+](C)(C)CCOC(=O)c4ccccc4)CC3)nc2)c1 [Example 5-25, N-{[({trans-4-[(1R)-1-(6-{[4-(difluoromethyl)pyridin-2-yl]amino}-4-methyl-2,3′-bipyridin-6′-yl)-1-hydroxyethyl]cyclohexyl}carbonyl)oxy]methyl}-N,N-dimethyl-2-[(phenylcarbonyl)oxy]ethanaminium]	
136 (≈ 76.9 µg/mL)	4.1		Cc1cc(Nc2cc(C(F)F)ccn2)nc(-c2ccc([C@](C)(O)[C@H]3CC[C@H](C(=O)OC4CCNCC4)CC3)nc2)c1 [Example 1-17, piperidin-4-yl trans-4-[(1R)-1-(6-{[4-(difluoromethyl)pyridin-2-yl]amino}-4-methyl-2,3′-bipyridin-6′-yl)-1-hydroxyethyl] cyclohexanecarboxylate]	
167 (≈ 110 µg/mL)	19.9		Cc1cc(Nc2cc(C(F)F)ccn2)nc(-c2ccc([C@](C)(O)[C@H]3CC[C@H](C(=O)OCOC(=O)OCCCCCCN)CC3)nc2)c1 [Example 2-1, ({[(6-Aminohexyl)oxy]carbonyl}oxy)methyl trans-4-[(1R)-1-(6-{[4-(difluoromethyl)pyridin-2-yl]amino}-4-methyl-2,3′-bipyridin-6′-yl)-1-hydroxyethyl]cyclohexanecarboxylate]	
48 (≈ 34.3 µg/mL)	48.4		CCOCCOCCOC(=O)OC(OC(=O)[C@H]1CC[C@H]([C@@](C)(O)c2ccc(-c3cc(C)cc(Nc4cc(C(F)F)ccn4)n3)cn2)CC1)C(C)C (stereo partly drawn) [Example 2-16, 1-(1-methylethyl)-3-oxo-2,4,7,10-tetraoxadodec-1-yl trans-4-[(1R)-1-(6-{[4-(difluoromethyl)pyridin-2-yl]amino}-4-methyl-2,3′-bipyridin-6′-yl)-1-hydroxyethyl]cyclo hexanecarboxylate]	
43 (≈ 24.5 µg/mL)	27.7		CSCCCOC(=O)[C@H]1CC[C@H]([C@@](C)(O)c2ccc(-c3cc(C)cc(Nc4cc(C(F)F)ccn4)n3)cn2)CC1 [Example 1-9, 3-(methylsulfanyl)propyl trans-4-[(1R)-1-(6-{[4-(difluoromethyl)pyridin-2-yl]amino}-4-methyl-2,3′-bipyridin-6′-yl)-1-hydroxyethyl] cyclohexanecarboxylate]	
45	1.6		CC(=O)C1CC[N+](C)(COC(=O)[C@H]2CC[C@H]([C@@](C)(O)c3ccc(-c4cc(C)cc(Nc5cc(C(F)F)ccn5)n4)cn3)CC2)CC1 (stereo partly drawn) [Example 5-17, 4-acetyl-1-{[({trans-4-[(1R)-1-(6-{[4-(difluoromethyl)pyridin-2-yl]amino}-4-methyl-2,3′-bipyridin-6′-yl)-1-hydroxyethyl]cyclohexyl}carbonyl)oxy]methyl}-1-methylpiperidinium]	
109 (≈ 71.8 µg/mL)	4.1		CO[C@H]1O[C@H](COC(=O)[C@H]2CC[C@H]([C@@](C)(O)c3ccc(-c4cc(C)cc(Nc5cc(C(F)F)ccn5)n4)cn3)CC2)[C@@H](O)[C@H](O)[C@H]1O [Example 1-26, methyl 6-O-({trans-4-[(1R)-1-(6-{[4-(difluoromethyl)pyridin-2-yl]amino}-4-methyl-2,3′-bipyridin-6′-yl)-1-hydroxyethyl]cyclohexyl}carbonyl)-alpha-D-glucopyranoside]	
50 (≈ 29.1 µg/mL)	1.8		Cc1cc(Nc2cc(C(F)F)ccn2)nc(-c2ccc([C@](C)(O)[C@H]3CC[C@H](C(=O)OCCC(=O)N(C)C)CC3)nc2)c1 [Example 1-27, 3-(dimethylamino)-3-oxopropyl trans-4-[(1R)-1-(6-{[4-(difluoromethyl)pyridin-2-yl]amino}-4-methyl-2,3′-bipyridin-6′-yl)-1-hydroxyethyl] cyclohexanecarboxylate]	
200	0.9		Cc1cc(Nc2cc(C(F)F)ccn2)nc(-c2ccc([C@](C)(O)[C@H]3CC[C@H](C(=O)OC[N+](C)(C)C4CCCCC4)CC3)nc2)c1 [Example 5-11, N-{[({trans-4-[(1R)-1-(6-{[4-(difluoromethyl)pyridin-2-yl]amino}-4-methyl-2,3′-bipyridin-6′-yl)-1-hydroxyethyl]cyclohexyl}carbonyl)oxy]methyl}-N,N-dimethylcyclohexanaminium]	
55	< 0.5		CCN(CC)C(=O)N1CC[N+](C)(COC(=O)[C@H]2CC[C@H]([C@@](C)(O)c3ccc(-c4cc(C)cc(Nc5cc(C(F)F)ccn5)n4)cn3)CC2)CC1 [Example 5-12, 4-(diethylcarbamoyl)-1-{[({trans-4-[(1R)-1-(6-{[4-(difluoromethyl)pyridin-2-yl]amino}-4-methyl-2,3′-bipyridin-6′-yl)-1-hydroxyethyl]cyclohexyl}carbonyl)oxy]methyl}-1-methylpiperazin-1-ium]	
141 (≈ 82.7 µg/mL)	4.3		Cc1cc(Nc2cc(C(F)F)ccn2)nc(-c2ccc([C@](C)(O)[C@H]3CC[C@H](C(=O)OCCC[S+](C)[O-])CC3)nc2)c1 (stereo partly drawn) [Example 7-4, 3-(methylsulfinyl)propyl trans-4-[(1R)-1-(6-{[4-(difluoromethyl)pyridin-2-yl]amino}-4-methyl-2,3′-bipyridin-6′-yl)-1-hydroxyethyl]cyclohexane carboxylate]	
	4.4	164 (≈ 90.5 µg/mL)	Cc1cc(Nc2cc(C(F)F)ccn2)nc(-c2ccc([C@](C)(O)[C@H]3CC[C@H](C(=O)O[C@H]4C[C@H](N)C4)CC3)nc2)c1 [Example 1-5, trans-3-Aminocyclobutyl trans-4-[(1R)-1-(6-{[4-(difluoromethyl)pyridin-2-yl]amino}-4-methyl-2,3′-bipyridin-6′-yl)-1-hydroxyethyl]cyclohexanecarboxylate]	

Compound	solubility [1, 3] [µM]	IC50 [2] [nM]	solubility ([1]; read-out: Solubility) [µM]	solubility ([1]; kinetic from dmso stock, FaSSIF, equilibrated overnight at 25° C., maximum solubility approximately 200 μM, read-out: Solubility) [µM]
Cc1cc(Nc2cc(C(F)F)ccn2)nc(-c2ccc([C@](C)(O)[C@H]3CC[C@H](C(=O)OCCC(C)(C)O)CC3)nc2)c1 [Example 1-12, 3-hydroxy-3-methylbutyl trans-4-[(1R)-1-(6-{[4-(difluoromethyl)pyridin-2-yl]amino}-4-methyl-2,3′-bipyridin-6′-yl)-1-hydroxyethyl] cyclohexanecarboxylate]		10		76 (≈ 43.2 µg/mL)
